Converted amounts (≈) assume the structure as drawn. “And” between values parts separate entries of the source, which are not always exact repeats. Equal values may be shown once. Marks after values point to notes of the source that are not given here.
Tests used:
[1] = test system: Mannheimia haemolytica MH 10720 (154, BRD field isolate); assay: MIC, broth-microdilution (CLSI VET01-A4); format: cell-based; details: strain MH 10720
How it was run: (§1)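 Doubling dilution series in microdilution trays; endpoint = lowest conc. without visible growth (no turbidity, unaided eye); interpretation per CLSI VET01-S3.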

[2] = test system: Mannheimia haemolytica MH 6374 (ATCC 33396, reference strain); assay: MIC, broth-microdilution (CLSI VET01-A4); format: cell-based; details: strain MH 6374
How it was run: as §1

[3] = test system: Pasteurella multocida PM 6267 (P 2225 (L386), reference strain, mouse infection strain); assay: MIC, broth-microdilution (CLSI VET01-A4); format: cell-based; details: strain PM 6267
How it was run: as §1

[4] = test system: Pasteurella multocida PM 10775 (080130003051, BRD field isolate); assay: MIC, broth-microdilution (CLSI VET01-A4); format: cell-based; details: strain PM 10775
How it was run: as §1

[5] = test system: Pasteurella multocida PM 6391 (ATCC 43137, reference strain); assay: MIC, broth-microdilution (CLSI VET01-A4); format: cell-based; details: strain PM 6391
How it was run: as §1

[6] = test system: Mannheimia haemolytica MH 12587 (1071, BRD field isolate, macrolide-resistance: erm+, E+); assay: MIC, broth-microdilution (CLSI VET01-A4); format: cell-based; details: strain MH 12587, macrolide-resistant
How it was run: as §1

[7] = test system: Mannheimia haemolytica MH 6357 (M7/2, reference strain, cattle infection strain); assay: MIC, broth-microdilution (CLSI VET01-A4); format: cell-based; details: strain MH 6357
How it was run: as §1

[8] = test system: Pasteurella multocida PM 12080 (IV102277-0093, BRD field isolate); assay: MIC, broth-microdilution (CLSI VET01-A4); format: cell-based; details: strain PM 12080
How it was run: as §1

[9] = test system: Mannheimia haemolytica MH 12180 (KLI-02944, BRD field isolate); assay: MIC, broth-microdilution (CLSI VET01-A4); format: cell-based; details: strain MH 12180
Description: (§2) The Minimum inhibitory concentrations (MIC) of compounds according to the invention were determined by the broth-microdilution method according to CLSI document VET01-A4.
(§3) Microdilution trays containing a doubling dilution series of the test compound were used for the tests.
(§4) The MIC results were interpreted according to the CLSI documents VET01-S3. The lowest concentration of compound at which no visible growth (i.e. no turbidity) detected by the unaided eye was recorded as the MIC.

[10] = test system: Pasteurella multocida PM 14426 (0006-439, BRD field isolate, macrolide-resistant); assay: MIC, broth-microdilution (CLSI VET01-A4); format: cell-based; details: strain PM 14426, macrolide-resistant
Description: as §2, §3, §4

[11] = test system: Acinetobacter baumanii AB 16496 (ATCC 19606, reference strain); assay: MIC, broth-microdilution (CLSI VET01-A4); format: cell-based; details: strain AB 16496
Description: as §2, §3, §4

[12] = test system: Staphylococcus aureus SA 6114 (ATCC 29213, reference strain); assay: MIC, broth-microdilution (CLSI VET01-A4); format: cell-based; details: strain SA 6114
Description: as §2, §3, §4

[13] = test system: Acinetobacter baumanii AB 15919 (IV369-2012, dermatitis field isolate); assay: MIC, broth-microdilution (CLSI VET01-A4); format: cell-based; details: strain AB 15919
Description: as §2, §3, §4

[14] = test system: Staphylococcus aureus SA 5816 (2139, mastitis field isolate); assay: MIC, broth-microdilution (CLSI VET01-A4); format: cell-based; details: strain SA 5816
Description: as §2, §3, §4

[15] = test system: 40 isolates of Mannheimia (M.) haemolytica; assay: MIC50/MIC90, broth-microdilution, European respiratory tract isolates; format: cell-based
Description: (§5) The in vitro activity of compounds against 20 isolates of Actinobacillus (A.) pleuropneumoniae, 20 of Bordetella (B.) bronchiseptica, 20 of Histophilus (H.) somni, 40 of Mannheimia (M.) haemolytica and 40 of Pasteurella (P.) multocida collected in different European countries were determined. All bacteria were isolated from the respiratory tract of swine and cattle suffering from respiratory disease. All isolates were epidemiologically unrelated as specified by the different suppliers.
(§6) The minimum inhibitory concentrations (MIC) of compounds according to the invention were determined by the broth-microdilution method according to CLSI document VET01-A4.
(§7) Microdilution trays containing a doubling dilution series of the test compounds were used for the tests.
as §4

[16] = test system: 20 isolates of Bordetella (B.) bronchiseptica; assay: as above; format: cell-based
Description: as §5, §6, §7, §4

[17] = test system: 20 isolates of Actinobacillus (A.) pleuropneumoniae; assay: as above; format: cell-based
Description: as §5, §6, §7, §4

[18] = test system: 20 isolates of Histophilus (H.) somni; assay: as above; format: cell-based
Description: as §5, §6, §7, §4

[19] = test system: 40 isolates of Pasteurella (P.) multocida; assay: as above; format: cell-based
Description: as §5, §6, §7, §4

[20] = test system: M. haemolytica; assay: Mannheimia haemolytica cattle lung infection model, efficacy (Example 10); format: in vivo, cattle calves; details: for Food consumption, cumulated for all animals in the group: 3 calves, 10 mg/kg
Description: Unless otherwise described the study was conducted as described in Clinical Example 8
Calves were infected via intratracheal instillation of appr. 300 mL of M. haemolytica PBS suspension containing approximately 4×10^9 CFU M. haemolytica in late log phase on Day 0.
One hour later three animals each were treated with 10 mg/kg of Compound 231(referred to as C. 231) (80 mg/mL in 10% Poloxamer 188), or 10 mg/kg or 5 mg/kg Compound 329 (referred to as C. 329) (150 mg/mL in 35% Cavitron).
The following clinical findings were recorded: The general behavior scores of the animals before (DO am) and after infection with M. haemolytica in the different treated and control groups are indicated in FIG. 8-1: 0=normal; 1=slightly depressive, 2=moderately depressive, 3=highly depressive, 4=recumbency.
The following pathomorphological findings after section on Day 2 were recorded: After measuring the body weight and the lung weight the Lung body mass ratio was calculated as shown in FIG. 8-2. A healthy animal has a lung body mass ration around 1.7 or lower. The area percentage of lung consolidations compared to the total lung tissue and the lung score determined that is a combined score of such percentage of lung consoldiations and the grade. For the “grade” the degree of lung consolidation score was graded from 0 to 3 for each of eight lung lobes: 0 no visible changes, 1 low graded colour changes or induration, 2 medium graded induration, 3 high graded induration, hepatisation, necrosis.
The geometrical means (CFU/g tissue) of bacteriological re-isolations of Mannheimia haemolytica from lung tissue are illustrated in FIG. 8-4.

[21] = Plasma and tissue concentrations in infected calves (Example 10); format: in vivo, cattle calves; details: SC single 10 mg/kg (C 231 in 10% Poloxamer 188; C 329 in 35% Cavitron), individual animals and mean
[22] = calves infected with M. haemolytica, SC, single, 10 mg/kg BW

SMILES: CCCNCc1ccc(C#Cc2ccc(C(=O)N[C@H](C(=O)NO)[C@@H](C)O)cc2)cc1 [C. 251]
- MIC [1]: 0.25 µg/mL (≈ 0.611 µM)
- MIC [2]: 8 µg/mL (≈ 19.5 µM)
- MIC [3]: 1 µg/mL (≈ 2.44 µM)
- MIC [4]: 8 µg/mL (≈ 19.5 µM)
- MIC [5]: 8 µg/mL (≈ 19.5 µM)
- MIC [6]: 2 µg/mL (≈ 4.88 µM)
- MIC [7]: 2 µg/mL (≈ 4.88 µM)
- MIC [8]: 0.063 µg/mL (≈ 0.154 µM)
- MIC [9]: 8 µg/mL (≈ 19.5 µM)
- MIC [10]: 8 µg/mL (≈ 19.5 µM)
- MIC [11]: >16 µg/mL
- MIC [12]: >16 µg/mL
- MIC [13]: >16 µg/mL
- MIC [14]: >16 µg/mL
- MIC50 [15]: 1 µg/mL (≈ 2.44 µM)
- MIC90 [15]: 1 µg/mL (≈ 2.44 µM)
- MIC50 [16]: >16 µg/mL
- MIC90 [16]: >16 µg/mL
- MIC50 [17]: 0.25 µg/mL (≈ 0.611 µM)
- MIC90 [17]: 0.5 µg/mL (≈ 1.22 µM)
- MIC50 [18]: 0.125 µg/mL (≈ 0.305 µM)
- MIC90 [18]: 0.25 µg/mL (≈ 0.611 µM)
- MIC50 [19]: 0.063 µg/mL (≈ 0.154 µM)
- MIC90 [19]: 0.125 µg/mL (≈ 0.305 µM)

SMILES: COCCNCc1ccc(C#Cc2ccc(C(=O)N[C@H](C(=O)NO)[C@@H](C)O)cc2)cc1 [C. 231]
- Food consumption, cumulated for all animals in the group ([20]; D 0 am, after infection and treatment): 1800** g
- Food consumption, cumulated for all animals in the group ([20]; D 0 pm): 4800 g
- Food consumption, cumulated for all animals in the group ([20]; D +1 am): 4800 g
- Food consumption, cumulated for all animals in the group ([20]; D +1 pm): 4800 g
- Food consumption, cumulated for all animals in the group ([20]; D −1 (before infection)): 4800 g
- Bacteriological Cure (x of n) [20, 22]: 2/3
- Survival (x of n) [20, 22]: 3/3
- efficacy against an artificial lung infection with M. haemolytica in the calf ([20]; tested dosages 10 mg/kg for C 231 and 10 mg/kg and 5 mg/kg for C 329, conclusion in words): effective
- MIC [1]: 0.5 µg/mL (≈ 1.18 µM)
- MIC [2]: 0.25 µg/mL (≈ 0.588 µM)
- MIC [3]: ≤0.016 µg/mL
- MIC [4]: ≤0.016 µg/mL
- MIC [5]: 0.063 µg/mL (≈ 0.148 µM)
- MIC [6]: 0.5 µg/mL (≈ 1.18 µM)
- MIC [7]: 0.5 µg/mL (≈ 1.18 µM)
- MIC [8]: 0.063 µg/mL (≈ 0.148 µM)
- MIC [9]: 0.5 µg/mL (≈ 1.18 µM)
- MIC [10]: 0.032 µg/mL (≈ 0.0752 µM)
- MIC [11]: >16 µg/mL
- MIC [12]: >16 µg/mL
- MIC [13]: >16 µg/mL
- MIC [14]: >16 µg/mL
- Concentration, Tissue (48 h) ELF [21]: BLQ
- Concentration, Tissue (48 h) Muscle [21]: 27 ng/mL
- Concentration, Plasma 0.5 h ([21]; 10 mg/kg): 1150 ng/mL (2×) and 1320 ng/mL
- Concentration, Plasma 2 h ([21]; 10 mg/kg): 448 ng/mL and 468 ng/mL and 447 ng/mL
- Concentration, Plasma 4 h ([21]; 10 mg/kg): 179 ng/mL and 171 ng/mL and 180 ng/mL
- Concentration, Plasma 6 h ([21]; 10 mg/kg): 83.9 ng/mL and 82.8 ng/mL and 102 ng/mL
- Concentration, Plasma 24 h ([21]; 10 mg/kg): 6.21 ng/mL and 10.8 ng/mL and 7.47 ng/mL
- Concentration, Plasma 48 h ([21]; 10 mg/kg): BLQ and 7.16 ng/mL and 5.74 ng/mL
- Concentration, Tissue (48 h) Kidney ([21]; 10 mg/kg): 56 ng/mL and 53.8 ng/mL and 79.3 ng/mL
- Concentration, Tissue (48 h) Liver ([21]; 10 mg/kg): 48.7 ng/mL and 41.2 ng/mL and 66.9 ng/mL
- Concentration, Tissue (48 h) Lung ([21]; 10 mg/kg): 26.6 ng/mL and BLQ and 22.4 ng/mL
- Concentration, Tissue (48 h) Muscle ([21]; 10 mg/kg): BLQ
- Concentration, Plasma 0 h ([21]; predose): BLQ
- MIC50 [15]: 0.5 µg/mL (≈ 1.18 µM)
- MIC90 [15]: 1 µg/mL (≈ 2.35 µM)
- MIC50 [16]: >16 µg/mL
- MIC90 [16]: >16 µg/mL
- MIC50 [17]: 0.25 µg/mL (≈ 0.588 µM)
- MIC90 [17]: 0.5 µg/mL (≈ 1.18 µM)
- MIC50 [18]: 0.125 µg/mL (≈ 0.294 µM)
- MIC90 [18]: 0.25 µg/mL (≈ 0.588 µM)
- MIC50 [19]: ≤0.016 µg/mL
- MIC90 [19]: 0.063 µg/mL (≈ 0.148 µM)

Source: patent US20230000813A1, “COMPOUND FOR THE TREATMENT OF BOVINE OR SWINE RESPIRATORY DISEASE” (Intervet Inc., priority 2016, published 2023)
